Reference: patent US20220242844A1, “CANNABINOID DERIVATIVES” (CANOPY GROWTH CORPORATION, priority 2019, published 2022)
Where two headings read alike, the source gives them in different places.

Legend:
human CB2 receptor = biological target: T1, human CB2 receptor (Homo sapiens, UniProt P34972); assay: CB2 radioligand ([3H]CP 55,940) competitive binding assay; settings: for Selectivity CB2: fold difference in binding affinity, CB2 over CB1, 1.00 = about the same affinity for both receptors
T1 construct: host or cells: CHO-K1 (Chinese hamster ovary) cells, stably transfected; membranes prepared in house

human CB1 receptor = biological target: T2, human CB1 receptor (Homo sapiens, UniProt P21554); assay: CB1 radioligand ([3H]CP 55,940) competitive binding assay; settings: for Selectivity CB1: fold difference in binding affinity, CB1 over CB2, 1.00 = about the same affinity for both receptors
T2 construct: host or cells: CHO-K1 (Chinese hamster ovary) cells, stably transfected; membranes prepared in house

[1] = [3H]CP 55,940 displacement, membranes of CHO-K1 cells expressing human CB2 receptor, read-out: CB2 IC50
[2] = [3H]CP 55,940 displacement, membranes of CHO-K1 cells expressing human CB1 receptor, read-out: CB1 IC50

T1 sequence (P34972 whole entry): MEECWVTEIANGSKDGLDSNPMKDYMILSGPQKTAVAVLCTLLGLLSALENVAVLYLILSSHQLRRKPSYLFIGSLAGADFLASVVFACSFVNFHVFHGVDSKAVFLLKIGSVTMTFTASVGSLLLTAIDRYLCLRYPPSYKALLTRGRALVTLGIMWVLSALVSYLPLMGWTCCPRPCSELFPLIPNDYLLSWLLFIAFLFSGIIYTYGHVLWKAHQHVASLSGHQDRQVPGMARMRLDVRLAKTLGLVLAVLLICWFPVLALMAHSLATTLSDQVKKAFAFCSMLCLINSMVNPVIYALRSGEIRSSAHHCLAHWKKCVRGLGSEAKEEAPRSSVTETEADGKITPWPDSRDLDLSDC
T2 sequence (P21554 whole entry): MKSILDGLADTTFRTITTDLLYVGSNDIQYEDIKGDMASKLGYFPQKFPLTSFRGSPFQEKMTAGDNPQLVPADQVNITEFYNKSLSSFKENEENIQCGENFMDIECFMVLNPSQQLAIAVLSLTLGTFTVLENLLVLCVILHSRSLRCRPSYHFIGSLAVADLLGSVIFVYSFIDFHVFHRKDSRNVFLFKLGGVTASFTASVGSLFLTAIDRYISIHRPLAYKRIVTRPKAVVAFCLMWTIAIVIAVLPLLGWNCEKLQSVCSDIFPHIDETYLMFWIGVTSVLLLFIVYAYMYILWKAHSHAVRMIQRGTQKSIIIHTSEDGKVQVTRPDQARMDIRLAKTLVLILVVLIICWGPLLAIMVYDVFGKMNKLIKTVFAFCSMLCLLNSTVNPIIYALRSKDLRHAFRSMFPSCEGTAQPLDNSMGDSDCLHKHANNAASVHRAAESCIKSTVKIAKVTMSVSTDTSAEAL

SMILES | IC50 (human CB2 receptor; [1]) | IC50 (human CB1 receptor; [2]) | Selectivity CB1 (human CB1 receptor) | Selectivity CB2 (human CB2 receptor) | IC50 (human CB1 receptor) | IC50 (human CB2 receptor)
CCCCCc1cc(O)c(C2C=C(C)CCC2)c2c1C(=O)OCO2 (centres unmarked) [Compound 1c, 7-hydroxy-8-(3-methylcyclohex-2-en-1-yl)-5-pentyl-4H-benzo[d][1,3]dioxin-4-one] | 1 to 9.9 µM | – | – | – | – | –
C=C(C)[C@@H]1CCC(C)=C[C@H]1c1c(O)cc(CCCCC)c2c1OCOC2=O [Compound 1d, 7-hydroxy-8-(3-methyl-6-(prop-1-en-2-yl)cyclohex-2-en-1-yl)-5-pentyl-4H-benzo[d][1,3]dioxin-4-one] | 1 to 9.9 µM | 1 to 9.9 µM | 1.00 fold | 1.00 fold | – | –
CCCCCc1cc(O)c(-c2cccc(C)c2)c2c1C(=O)OC(C)(C)O2 [Compound 2a, 7-hydroxy-2,2-dimethyl-8-(m-tolyl)-5-pentyl-1,3-benzodioxin-4-one] | 1 to 9.9 µM | 10 to 19.9 µM | – | 3.08 fold | – | –
CCCCCc1cc(O)c(C2C=C(C)CCC2)c2c1C(=O)OC(C)(C)O2 (centres unmarked) [Compound 2c, 7-hydroxy-2,2-dimethyl-8-(3-methylcyclohex-2-en-1-yl)-5-pentyl-4H-benzo[d][1,3]dioxin-4-one] | – | – | 2.76 fold | – | 1 to 9.9 µM | 10 to 19.9 µM
C=C(C)[C@@H]1CCC(C)=C[C@H]1c1c(O)cc(CCCCC)c2c1OC(C)(C)OC2=O [Compound 2d, 7-hydroxy-2,2-dimethyl-8-(3-methyl-6-(prop-1-en-2-yl)cyclohex-2-en-1-yl)-5-pentyl-4H-benzo[d][1,3]dioxin-4-one] | 10 to 19.9 µM | > 20 µM | – | 2.00 fold | – | –
C=C(C)C1CCC(C)=CC1c1c(O)cc(CCCCC)c2c1OC(c1ccccc1)OC2=O (centres unmarked) [Compound 3d, 7-hydroxy-8-(3-methyl-6-(prop-1-en-2-yl)cyclohex-2-en-1-yl)-5-pentyl-2-phenyl-4H-benzo[d][1,3]dioxin-4-one] | 1 to 9.9 µM | < 1 µM | 2.53 fold | – | – | –
C=C(C)C1CCC(C)=CC1c1c(O)cc(CCCCC)c2c1OC(C)(CC(C)=O)OC2=O (centres unmarked) [Compound 7d, 7-hydroxy-2-methyl-8-(3-methyl-6-(prop-1-en-2-yl)cyclohex-2-en-1-yl)-2-(2-oxopropyl)-5-pentyl-4H-benzo[d][1,3]dioxin-4-one] | – | – | – | 13.33 fold | > 20 µM | 1 to 9.9 µM
CCCCCc1cc(O)c(C2C=C(C)CCC2)c2c1C(=O)OC1(CCCC1)O2 (centres unmarked) [Compound 9c, 7-hydroxy-8-(3-methylcyclohex-2-en-1-yl)-5-pentyl-spiro[1,3-benzodioxine-2,1′-cyclopentane]-4-one] | – | – | – | 3.32 fold | 10 to 19.9 µM | 1 to 9.9 µM
C=C(C)[C@@H]1CCC(C)=C[C@H]1c1c(O)cc(CCCCC)c2c1OC(C)(COC)OC2=O (some centres unmarked) [Compound 11d, 7-hydroxy-2-(methoxymethyl)-2-methyl-8-(3-methyl-6-(prop-1-en-2-yl)cyclohex-2-en-1-yl)-5-pentyl-4H-benzo[d][1,3]dioxin-4-one] | – | – | – | 1.89 fold | > 20 µM | 10 to 19.9 µM
CCCCCc1cc(O)c(-c2cccc(C)c2)c2c1C(=O)OC(CC(C)=O)(c1ccccc1)O2 (centres unmarked) [Compound 12a, 2-acetonyl-7-hydroxy-8-(m-tolyl)-5-pentyl-2-phenyl-1,3-benzodioxin-4-one] | – | – | – | 1.53 fold | > 20 µM | 10 to 19.9 µM
CCCCCc1cc(O)c(C2C=C(C)CCC2)c2c1C(=O)OC(CC(C)=O)(c1ccccc1)O2 (centres unmarked) [Compound 12c, 7-hydroxy-8-(3-methylcyclohex-2-en-1-yl)-2-(2-oxopropyl)-5-pentyl-2-phenyl-4H-benzo[d][1,3]dioxin-4-one] | – | – | – | 1.37 fold | 1 to 9.9 µM | 1 to 9.9 µM
C=C(C)[C@@H]1CCC(C)=C[C@H]1c1c(O)cc(CCCCC)c2c1OC(CC(C)=O)(c1ccccc1)OC2=O (some centres unmarked) [Compound 12d, 7-hydroxy-8-(3-methyl-6-(prop-1-en-2-yl)cyclohex-2-en-1-yl)-2-(2-oxopropyl)-5-pentyl-2-phenyl-4H-benzo[d][1,3]dioxin-4-one] | – | – | 1.00 fold | 1.00 fold | 1 to 9.9 µM | 1 to 9.9 µM
CCCCCc1cc(O)c(C2C=C(C)CCC2)c2c1C(=O)OC(CC(C)=O)O2 (centres unmarked) [Compound 14c, 7-hydroxy-8-(3-methylcyclohex-2-en-1-yl)-2-(2-oxopropyl)-5-pentyl-4H-benzo[d][1,3]dioxin-4-one] | 1 to 9.9 µM | 1 to 9.9 µM | – | 2.06 fold | – | –
C=C(C)[C@@H]1CCC(C)=C[C@H]1c1c(O)cc(CCCCC)c2c1OC(CC(C)=O)OC2=O (some centres unmarked) [Compound 14d, 7-hydroxy-8-(3-methyl-6-(prop-1-en-2-yl)cyclohex-2-en-1-yl)-2-(2-oxopropyl)-5-pentyl-4H-benzo[d][1,3]dioxin-4-one] | 1 to 9.9 µM | 10 to 19.9 µM | – | 4.92 fold | – | –
C=C(C)[C@@H]1CCC(C)=C[C@H]1c1c(O)cc(CCCCC)c2c1OC(C)OC2=O (some centres unmarked) [Compound 16d, 7-hydroxy-2-methyl-8-(3-methyl-6-(prop-1-en-2-yl)cyclohex-2-en-1-yl)-5-pentyl-4H-benzo[d][1,3]dioxin-4-one] | – | – | – | 2.44 fold | 1 to 9.9 µM | 1 to 9.9 µM
C=C(C)[C@@H]1CCC(C)=C[C@H]1c1c(O)cc(CCCCC)c2c1OC(CC)OC2=O (some centres unmarked) [Compound 17d, 2-ethyl-7-hydroxy-8-(3-methyl-6-(prop-1-en-2-yl)cyclohex-2-en-1-yl)-5-pentyl-4H-benzo[d][1,3]dioxin-4-one] | < 1 µM | 1 to 9.9 µM | – | 4.35 fold | – | –
C=C(C)[C@@H]1CCC(C)=C[C@H]1c1c(O)cc(CCC)c2c1OCOC2=O [Compound 23d, 7-hydroxy-8-(3-methyl-6-(prop-1-en-2-yl)cyclohex-2-en-1-yl)-5-propyl-4H-benzo[d][1,3]dioxin-4-one] | 1 to 9.9 µM | 1 to 9.9 µM | 1.00 fold | 1.00 fold | – | –
C=C(C)[C@@H]1CCC(C)=C[C@H]1c1c(O)cc(CCC)c2c1OC(CC(C)=O)(c1ccccc1)OC2=O (some centres unmarked) [Compound 24d, 7-hydroxy-8-(3-methyl-6-(prop-1-en-2-yl)cyclohex-2-en-1-yl)-2-(2-oxopropyl)-2-phenyl-5-propyl-4H-benzo[d][1,3]dioxin-4-one] | – | – | 1.00 fold | 1.00 fold | 1 to 9.9 µM | 1 to 9.9 µM
